Laboratory results as given in US8496974B2, “Method for preparing a composition comprising a compound mixture and a carrier agent” (Oy Granula AB Ltd, priority 2008, dated 2013).
Like-named read-outs stand apart in the source and are kept apart here.

Columns and labels:
[1] = pure polyphenols; footnote 1: Willför et al., J. Agric. Food. Chem, 51, 26 (2003); cited from earlier work
[2] = pure polyphenols; footnote 1: Willför et al., J. Agric. Food. Chem., 51, 7600-7606 (2003); cited from earlier work
[3] = Antioxidative capacity: inhibition of the peroxidation of lipids; format: biochemical; conditions: pure polyphenols isolated from wood materials
Text: In Tables 4A, 4B, 4C and 4D, there are represented antioxidative and free radical capturing effects of pure polyphenolic compounds and of unpurified polyphenolic compounds containing raw extracts obtained from wood bark and stem knotwood.

[4] = Peroxide radicals capturing capacity; format: biochemical; conditions: pure polyphenols isolated from wood material
Text: Tables 4C and 4D further represent the free radicals capturing capacity of certain pure polyphenols and unpurified polyphenol extracts with respect to peroxide radicals.

human keratinocyte cells = format: cell-based; conditions: 24 h incubation, total protein quantity

Compound | EC50 μg/L, concentration which inhibits 50% of the peroxidation of the lipids [1] | capturing capacity mmol/g (peroxide radicals) [2] | EC50 μg/L, concentration which inhibits 50% of the peroxidation of the lipids [3] | capturing capacity mmol/g (peroxide radicals) [4] | EC20 ppm 24 h (limit value by which 20% of the cultivated cells died) (human keratinocyte cells)
COc1cc(C[C@@H](CO)[C@H](CO)Cc2ccc(O)c(OC)c2)ccc1O [Secoisolariciresinol] | 37 µg/L | 8.5 mmol/g | – | – | –
Pinoresinol | – | – | 20 µg/L | 7.8 mmol/g | –
COc1cc(C[C@H]2C(=O)OC[C@@H]2[C@H](O)c2ccc(O)c(OC)c2)ccc1O [Hydroxymatairesinol] | 58 µg/L | 5.6 mmol/g | – | – | –
Oc1cc(O)cc(/C=C/c2ccccc2)c1 [Pinosylvin] | – | – | 50 µg/L | 0.78 mmol/g | –
COc1cc(C[C@H]2CO[C@H](c3ccc(O)c(OC)c3)[C@H]2CO)ccc1O [Lariciresinol] | 126 µg/L | 2.7 mmol/g | – | – | –
COc1cc(C[C@H]2COC(=O)[C@]2(O)Cc2ccc(O)c(OC)c2)ccc1O [Nortrachelogenin] | 53 µg/L | 5.9 mmol/g | – | – | –
O=C1c2c(O)cc(O)cc2O[C@H](c2ccc(O)cc2)[C@H]1O [Dihydrokaempferol] | – | – | 488 µg/L | 0.78 mmol/g | –
COc1cc(C[C@H]2COC(=O)[C@@H]2Cc2ccc(O)c(OC)c2)ccc1O [Matairesinol] | 99 µg/L | 2.9 mmol/g | – | – | –
O=C1c2c(O)cc(O)cc2O[C@H](c2ccc(O)c(O)c2)[C@H]1O [Taxifolin] | 46 µg/L | 16 mmol/g | – | – | –
O=C1C[C@@H](c2ccccc2)Oc2cc(O)cc(O)c21 [Pinosembrin] | – | – | 1135 µg/L | 0.49 mmol/g | –
COc1cc([C@H]2c3cc(O)c(OC)cc3C[C@@H](CO)[C@@H]2CO)ccc1O [Cyclolariciresinol] | – | – | 17 µg/L | 12 mmol/g | –
Cc1cc(C(C)(C)C)c(O)c(C(C)(C)C)c1 [BTH, butylated hydroxytoluene] | – | – | – | – | 5.50 ppm
Oc1ccc([C@H]2Oc3c(ccc(O)c3O)[C@@H](O)[C@H]2O)cc1O [Melacasidine] | – | – | 36 µg/L | 20 mmol/g | –
Oc1ccc([C@H]2Oc3c(ccc(O)c3O)[C@@H](O)[C@H]2O)cc1 [Teracasidine] | – | – | 50 µg/L | 7.8 mmol/g | –
